Results on 5 compounds are retold here after patent US20100222269A1, “IMPROVED DERIVATIVES OF AMYLIN” (priority 2007, published 2010).

The target of the experiment is T1, Amylin 3(a) receptor (human calcitonin receptor (CTa) with RAMP-3) (Homo sapiens, UniProt O60896+P30988).
T1 construct: expressed in transfected cells; host or cells: BHK570 (baby hamster kidney) cells, stably transfected, with CRE-luciferase reporter
In words: Amylin luciferase assay (CRE-luciferase reporter in BHK Amylin 3(a)//CRE-luc cells). The experiment is classed as cell-based. The source says:
It has previously been published (Poyner D R et al 2002, Pharmacological Reviews 54(2) 233-246) that activation of Amylin receptors (coexpression of Calcitonin receptor and receptor activity modifying peptides RAMPs) by Amylin leads to an increase in the intracellular concentration of cAMP. Consequently, transcription is activated at promotors containing multiple copies of the cAMP response element (CRE). It is thus possible to measure Amylin activity by use of a CRE luciferase reporter gene introduced into BHK cells also expressing an Amylin receptor.
2. Construction of an Amylin 3(a)/CRE-luc Cell Line
A BHK570 cell line stably transfected with the human calcitonin receptor (CTa) and a CRE-responsive luciferase reportergene. The cell line was further transfected with RAMP-3, using standard methods. This turns the Calcitonin receptor into an Amylin 3(a) receptor. Methotrexate, Neomycin, and Hygromycin are selection markers for luciferase, the Calcitonin receptor, and RAMP-3, respectively.
3. Amylin Luciferase Assay
To perform activity assays, BHK Amylin 3(a)//CRE-luc cells were seeded in white 96 well culture plates at a density of about 20.000 cells/well. The cells were in 100 μl growth medium (DMEM with 10% FBS, 1% Pen/Strep, 1 mM Na-pyruvate, 250 nM Methotrexate, 500 μg/ml Neomycin, and 400 μg/ml Hygromycin). After incubation overnight at 37° C. and 5% CO2, the growth medium was replaced by 50 μl/well assay medium (DMEM (without phenol red), Glumamax™, 10% FBS, and 10 mM Hepes, pH 7,4). Further, 50 μl/well of standard or sample in assay buffer were added. After 4 hours incubation at 37° C. and 5% CO2, the assay medium with standard or sample were removed and replaced by 100 μl/well PBS. Further, 100 μl/well LucLite™ was added. The plates were sealed and incubated at room temperature for 30 minutes. Finally, luminescence was measured on a TopCounter (Packard) in SPC (single photon counting) mode.
(In general: In a reporter assay the amount or activity of a reporter protein is the signal.)

Setting [1] is: BHK570 cells with human calcitonin receptor (CTa), RAMP-3 and CRE-luciferase reporter, 4 hours incubation, read-out: Potency luciferase assay.

SMILES strings stand for the structures. Read-outs that look alike come from different tables or passages of the source. Starred links: 1 amine or outer side, 2 acyl side, 3 side chain; linkers in the order of their positions; H or OH if unused. Positions of bridges follow the written chain, without caps; N, C: chain ends. Residues, ends and D or L forms follow the SMILES beside them. Groups on a side chain read outwards from the residue. *: point of attachment. C20 diacid = O=C(O)CCCCCCCCCCCCCCCCCCC(=O)*; C18 diacid = O=C(O)CCCCCCCCCCCCCCCCC(=O)*; γGlu = O=C(O)[C@H](CCC(=O)[*:2])N[*:1]; AEEA = NCCOCCOCC(=O)O

T1 sequence (O60896 24-148): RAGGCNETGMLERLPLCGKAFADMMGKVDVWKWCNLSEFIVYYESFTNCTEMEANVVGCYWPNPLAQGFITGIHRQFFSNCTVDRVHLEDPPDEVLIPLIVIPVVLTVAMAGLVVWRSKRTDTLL
T1 sequence (P30988 25-474): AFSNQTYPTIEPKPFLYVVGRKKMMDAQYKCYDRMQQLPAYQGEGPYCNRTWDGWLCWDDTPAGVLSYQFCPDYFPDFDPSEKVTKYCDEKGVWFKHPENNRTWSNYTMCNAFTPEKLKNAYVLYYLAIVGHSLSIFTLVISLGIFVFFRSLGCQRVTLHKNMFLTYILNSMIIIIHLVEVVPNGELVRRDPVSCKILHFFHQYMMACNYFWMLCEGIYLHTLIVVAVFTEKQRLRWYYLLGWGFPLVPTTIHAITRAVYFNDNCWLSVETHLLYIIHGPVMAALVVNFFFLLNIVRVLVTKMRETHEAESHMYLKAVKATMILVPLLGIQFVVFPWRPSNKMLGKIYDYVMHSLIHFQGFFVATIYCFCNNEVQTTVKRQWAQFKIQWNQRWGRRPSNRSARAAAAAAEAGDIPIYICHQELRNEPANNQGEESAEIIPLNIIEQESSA

On to `CC[C@H](C)[C@H](NC(=O)[C@H](CCCCNC(=O)COCCOCCNC(=O)COCCOCCNC(=O)CCCCCCCCCCCCCCCCC(=O)O)NC(=O)CNC(=O)[C@H](Cc1ccccc1)NC(=O)[C@H](CC(N)=O)NC(=O)[C@H](CC(N)=O)NC(=O)[C@H](CO)NC(=O)[C@H](CO)NC(=O)[C@H](CCCNC(=N)N)NC(=O)[C@@H](NC(=O)[C@H](CC(C)C)NC(=O)[C@H](Cc1ccccc1)NC(=O)[C@H](CC(N)=O)NC(=O)[C@H](C)NC(=O)[C@H](CC(C)C)NC(=O)[C@H](CCCNC(=N)N)NC(=O)[C@H](CCC(N)=O)NC(=O)[C@@H](NC(=O)[C@H](C)NC(=O)[C@@H]1CSSC[C@H](NC(=O)[C@@H](N)CCCCN)C(=O)N[C@@H](CC(N)=O)C(=O)N[C@@H]([C@@H](C)O)C(=O)N[C@@H](C)C(=O)N[C@@H]([C@@H](C)O)C(=O)N1)[C@@H](C)O)C(C)C)C(=O)N[C@@H](CC(C)C)C(=O)N1CCC[C@H]1C(=O)N1CCC[C@H]1C(=O)N[C@H](C(=O)N[C@@H](CC(N)=O)C(=O)N[C@H](C(=O)NCC(=O)N[C@@H](CO)C(=O)N[C@@H](CC(N)=O)C(=O)N[C@H](C(=O)N[C@@H](Cc1ccc(O)cc1)C(N)=O)[C@@H](C)O)C(C)C)[C@@H](C)O` [Example 9, N-epsilon25-(2-{2-[2-(2-{2-[2-(17-carboxyheptadecanoylamino)ethoxy]ethoxy}acetylamino)ethoxy]ethoxy}acetyl)-[Arg18,Lys25]-pramlintide (1-37)] (H-KCNTATCATQRLANFLVRSSNNFGK([AEEA-AEEA-C18 diacid])ILPPTNVGSNTY-NH2; disulfide 2-7), for which the EC50 under setting [1] was found to be 0.04 nM.

For `CC[C@H](C)[C@H](NC(=O)[C@H](CCCCNC(=O)COCCOCCNC(=O)COCCOCCNC(=O)CCCCCCCCCCCCCCCCCCC(=O)O)NC(=O)CNC(=O)[C@H](Cc1ccccc1)NC(=O)[C@H](CC(N)=O)NC(=O)[C@H](CC(N)=O)NC(=O)[C@H](CO)NC(=O)[C@H](CO)NC(=O)[C@H](Cc1c[nH]cn1)NC(=O)[C@@H](NC(=O)[C@H](CC(C)C)NC(=O)[C@H](Cc1ccccc1)NC(=O)[C@H](CC(N)=O)NC(=O)[C@H](C)NC(=O)[C@H](CC(C)C)NC(=O)[C@H](CCCNC(=N)N)NC(=O)[C@H](CCC(N)=O)NC(=O)[C@@H](NC(=O)[C@H](C)NC(=O)[C@@H]1CSSC[C@H](NC(=O)[C@@H](N)CCCCN)C(=O)N[C@@H](CC(N)=O)C(=O)N[C@@H]([C@@H](C)O)C(=O)N[C@@H](C)C(=O)N[C@@H]([C@@H](C)O)C(=O)N1)[C@@H](C)O)C(C)C)C(=O)N[C@@H](CC(C)C)C(=O)N1CCC[C@H]1C(=O)N1CCC[C@H]1C(=O)N[C@H](C(=O)N[C@@H](CC(N)=O)C(=O)N[C@H](C(=O)NCC(=O)N[C@@H](CO)C(=O)N[C@@H](CC(N)=O)C(=O)N[C@H](C(=O)N[C@@H](Cc1ccc(O)cc1)C(N)=O)[C@@H](C)O)C(C)C)[C@@H](C)O` [Example 10, N-epsilon25-(2-{2-[2-(2-{2-[2-(19-carboxynonadecanoylamino)ethoxy]ethoxy}acetylamino)ethoxy]ethoxy}acetyl)-[Lys25]-pramlintide (1-37)] (H-KCNTATCATQRLANFLVHSSNNFGK([AEEA-AEEA-C20 diacid])ILPPTNVGSNTY-NH2; disulfide 2-7; N-terminus and C-terminus assumed), the EC50 under setting [1] amounted to 0.06 nM.

Take `CC[C@H](C)[C@H](NC(=O)[C@@H]1CCCN1C(=O)CNC(=O)[C@H](Cc1ccccc1)NC(=O)[C@H](CC(N)=O)NC(=O)[C@H](CC(N)=O)NC(=O)[C@H](CO)NC(=O)[C@H](CO)NC(=O)[C@H](Cc1c[nH]cn1)NC(=O)[C@@H](NC(=O)[C@H](CC(C)C)NC(=O)[C@H](Cc1ccccc1)NC(=O)[C@H](CC(N)=O)NC(=O)[C@H](C)NC(=O)[C@H](CC(C)C)NC(=O)[C@H](CCCNC(=N)N)NC(=O)[C@H](CCC(N)=O)NC(=O)[C@@H](NC(=O)[C@H](C)NC(=O)[C@@H]1CSSC[C@H](NC(=O)[C@@H](N)CCCCN)C(=O)N[C@@H](CCCCNC(=O)COCCOCCNC(=O)COCCOCCNC(=O)CC[C@H](NC(=O)CCCCCCCCCCCCCCCCC(=O)O)C(=O)O)C(=O)N[C@@H]([C@@H](C)O)C(=O)N[C@@H](C)C(=O)N[C@@H]([C@@H](C)O)C(=O)N1)[C@@H](C)O)C(C)C)C(=O)N[C@@H](CC(C)C)C(=O)N1CCC[C@H]1C(=O)N1CCC[C@H]1C(=O)N[C@H](C(=O)N[C@@H](CC(N)=O)C(=O)N[C@H](C(=O)NCC(=O)N[C@@H](CO)C(=O)N[C@@H](CC(N)=O)C(=O)N[C@H](C(=O)N[C@@H](Cc1ccc(O)cc1)C(N)=O)[C@@H](C)O)C(C)C)[C@@H](C)O` [Example 11, N-epsilon3-[2-(2-{2-[2-(2-{2-[(S)-4-carboxy-4-(17-carboxyheptadecanoylamino)butyrylamino]ethoxy}ethoxy)acetylamino]ethoxy}ethoxy)acetyl]-[Lys3]-pramlintide (1-37)] (H-KCK([AEEA-AEEA-γGlu-C18 diacid])TATCATQRLANFLVHSSNNFGPILPPTNVGSNTY-NH2; disulfide 2-7; N-terminus assumed): the EC50 turned out to be 0.2 nM.

Regarding `CC[C@H](C)[C@H](NC(=O)[C@@H]1CCCN1C(=O)CNC(=O)[C@H](Cc1ccccc1)NC(=O)[C@H](CC(N)=O)NC(=O)[C@H](CC(N)=O)NC(=O)[C@H](CO)NC(=O)[C@H](CO)NC(=O)[C@H](Cc1c[nH]cn1)NC(=O)[C@@H](NC(=O)[C@H](CC(C)C)NC(=O)[C@H](Cc1ccccc1)NC(=O)[C@H](CC(N)=O)NC(=O)[C@H](C)NC(=O)[C@H](CC(C)C)NC(=O)[C@H](CCCNC(=N)N)NC(=O)[C@H](CCC(N)=O)NC(=O)[C@@H](NC(=O)[C@H](C)NC(=O)[C@@H]1CSSC[C@H](NC(=O)[C@@H](N)CCCCN)C(=O)N[C@@H](CCCCNC(=O)COCCOCCNC(=O)COCCOCCNC(=O)CC[C@H](NC(=O)CCCCCCCCCCCCCCCCCCC(=O)O)C(=O)O)C(=O)N[C@@H]([C@@H](C)O)C(=O)N[C@@H](C)C(=O)N[C@@H]([C@@H](C)O)C(=O)N1)[C@@H](C)O)C(C)C)C(=O)N[C@@H](CC(C)C)C(=O)N1CCC[C@H]1C(=O)N1CCC[C@H]1C(=O)N[C@H](C(=O)N[C@@H](CC(N)=O)C(=O)N[C@H](C(=O)NCC(=O)N[C@@H](CO)C(=O)N[C@@H](CC(N)=O)C(=O)N[C@H](C(=O)N[C@@H](Cc1ccc(O)cc1)C(N)=O)[C@@H](C)O)C(C)C)[C@@H](C)O` [Example 12, N-epsilon3-[2-(2-{2-[2-(2-{2[(S)-4-carboxy-4-(19-carboxynonadecanoylamino)butyrylamino]ethoxy}ethoxy)acetylamino]ethoxy}ethoxy)acetyl]-[Lys3]-pramlintide (1-37)] (H-KCK([AEEA-AEEA-γGlu-C20 diacid])TATCATQRLANFLVHSSNNFGPILPPTNVGSNTY-NH2; disulfide 2-7; N-terminus and C-terminus assumed), the EC50 under setting [1] stood at 0.3 nM.

Regarding `CC[C@H](C)[C@H](NC(=O)[C@@H]1CCCN1C(=O)CNC(=O)[C@H](Cc1ccccc1)NC(=O)[C@H](CC(N)=O)NC(=O)[C@H](CC(N)=O)NC(=O)[C@H](CO)NC(=O)[C@H](CO)NC(=O)[C@H](Cc1c[nH]cn1)NC(=O)[C@@H](NC(=O)[C@H](CC(C)C)NC(=O)[C@H](Cc1ccccc1)NC(=O)[C@H](CC(N)=O)NC(=O)[C@H](C)NC(=O)[C@H](CC(C)C)NC(=O)[C@H](CCCNC(=N)N)NC(=O)[C@H](CCC(N)=O)NC(=O)[C@@H](NC(=O)[C@H](C)NC(=O)[C@@H]1CSSC[C@H](NC(=O)[C@@H](N)CCCCN)C(=O)N[C@@H](CCCCNC(=O)COCCOCCNC(=O)COCCOCCNC(=O)CCCCCCCCCCCCCCCCCCC(=O)O)C(=O)N[C@@H]([C@@H](C)O)C(=O)N[C@@H](C)C(=O)N[C@@H]([C@@H](C)O)C(=O)N1)[C@@H](C)O)C(C)C)C(=O)N[C@@H](CC(C)C)C(=O)N1CCC[C@H]1C(=O)N1CCC[C@H]1C(=O)N[C@H](C(=O)N[C@@H](CC(N)=O)C(=O)N[C@H](C(=O)NCC(=O)N[C@@H](CO)C(=O)N[C@@H](CC(N)=O)C(=O)N[C@H](C(=O)N[C@@H](Cc1ccc(O)cc1)C(N)=O)[C@@H](C)O)C(C)C)[C@@H](C)O` [Example 13, N-epsilon3-(2-{2-[2-(2-{2-[2-(19-carboxynonadecanoylamino)ethoxy]ethoxy}acetylamino)ethoxy]ethoxy}acetyl)-[Lys3]-pramlintide (1-37)] (H-KCK([AEEA-AEEA-C20 diacid])TATCATQRLANFLVHSSNNFGPILPPTNVGSNTY-NH2; disulfide 2-7; N-terminus assumed), the EC50 under setting [1] stood at 0.06 nM.
